Among the data in PubChem BioAssay (NCI) are TGI and GI50 values, retold here.

Where “and” joins values, the source holds several entries; their conditions need not be identical. Identical values can stand only once.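 Where inhibition never reached the appropriate level, the endpoint shown equals the highest concentration tested. Otherwise, values were interpolated linearly from a five-concentration, 48-hour dose response in 96-well plates. GI50 = concentration required for 50% inhibition of growth. At the TGI there is no net growth.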 Some results are limits rather than exact numbers.

Some test systems named below: CCRF-CEM leukemia; DU-145 prostate; ACHN renal; HOP-92 NSCLC; UACC-257 melanoma; SNB-19 CNS; COLO 205 colon; 786-0 renal; EKVX NSCLC; A498 renal.
Common to all, as to experiment: NCI-60 cell line screen, 48 h

Consider `COC1=C(C)C(=O)C2=C(C1=O)C1C3CC4=C(C(=O)C(OC)=C(C)C4=O)C(CNC(=O)C(C)O)N3C(C#N)C(C2)N1C` (stereo unspecified), for which the TGI in the assay on CCRF-CEM leukemia was 1.38 µM; with DU-145 prostate, 0.0566 µM; with ACHN renal, 0.359 µM; in the assay with HOP-92 NSCLC, below 0.01 µM; with UACC-257 melanoma, 0.0102 µM; in the assay on SNB-19 CNS, 1.92 µM. Moreover, the TGI is below 0.01 µM in the assay on COLO 205 colon, 1.24 µM in the assay with 786-0 renal and 0.108 µM in the assay with EKVX NSCLC.

Consider `CCOC1NC(=O)Oc2cc3ccccc3cc21` (stereo unspecified), for which the TGI with CCRF-CEM leukemia was above 100 µM; in the assay with DU-145 prostate, above 100 µM; in the assay with ACHN renal it was above 100 µM; in the assay with HOP-92 NSCLC, 82.8 µM; in the assay on UACC-257 melanoma, above 100 µM; in the assay with SNB-19 CNS, above 100 µM. The TGI in the assay on COLO 205 colon, in the assay on 786-0 renal and in the assay with EKVX NSCLC was above 100 µM throughout.

Consider `COC(=O)CCNc1c2ccccc2nc2cccc([N+](=O)[O-])c12`, for which the GI50 in the assay on A498 renal is 0.0185 µM; with CCRF-CEM leukemia it was 0.00682 µM and 0.0157 µM; in the assay with UACC-257 melanoma it was 0.0023 µM and 0.0122 µM; in the assay on SNB-19 CNS, 0.00416 µM. Also, the TGI with A498 renal is 0.0585 µM; with CCRF-CEM leukemia it was 0.18 µM and 0.0689 µM; with DU-145 prostate it was 19.6 µM; with UACC-257 melanoma, 0.00704 µM and 0.0476 µM; in the assay with SNB-19 CNS it was 0.217 µM and 0.0495 µM; in the assay with COLO 205 colon, 0.0171 µM. The same compound displayed a TGI in the assay on 786-0 renal of 0.00134 µM.

For `S=c1nc(N/N=C/c2cccs2)c2cn[nH]c2[nH]1`, the TGI in the assay on A498 renal, with DU-145 prostate, in the assay on ACHN renal, with HOP-92 NSCLC, with UACC-257 melanoma and with SNB-19 CNS was above 100 µM each time. The TGI in the assay with COLO 205 colon, in the assay with 786-0 renal and with EKVX NSCLC was above 100 µM in each case.

Turning to `COC(=O)c1ccccc1/C=C1\Cc2ccc3c(c2C1=O)CCCC3`, the TGI in the assay with A498 renal, in the assay on CCRF-CEM leukemia, in the assay on DU-145 prostate, in the assay with ACHN renal, in the assay on UACC-257 melanoma and in the assay on SNB-19 CNS was above 100 µM in each case. The TGI in the assay on COLO 205 colon, in the assay with 786-0 renal and with EKVX NSCLC was above 100 µM each time.

On to `O=C(O)/C(=C\c1ccc(O)cc1)c1cccc2ccccc12`, for which the TGI with A498 renal, in the assay on DU-145 prostate, in the assay on ACHN renal, in the assay with HOP-92 NSCLC, in the assay with UACC-257 melanoma and in the assay on SNB-19 CNS was above 100 µM in each case. For the same compound, the TGI in the assay on 786-0 renal and in the assay with EKVX NSCLC was above 100 µM throughout.

As to `CCCCCCCCCCCCCC[n+]1ccc(C(N)=O)cc1`, the GI50 is 3.07 µM with A498 renal; 2.52 µM in the assay on CCRF-CEM leukemia; 2.66 µM in the assay with DU-145 prostate; 3.47 µM with ACHN renal; 2.24 µM in the assay with UACC-257 melanoma; 1.27 µM in the assay with COLO 205 colon. Moreover, in the assay with EKVX NSCLC, the GI50 was 1.98 µM. Besides, the TGI with A498 renal was 21.5 µM; in the assay with CCRF-CEM leukemia it was above 100 µM; with DU-145 prostate it was 10.7 µM; in the assay on ACHN renal, 15.9 µM; in the assay on UACC-257 melanoma, 6.08 µM; in the assay on COLO 205 colon, 2.69 µM. Moreover, the TGI with EKVX NSCLC came to 6.71 µM.

As to `O=c1[nH]c2nccn2c2c1SCCN2`, the TGI in the assay on A498 renal, in the assay with CCRF-CEM leukemia, in the assay with DU-145 prostate, with ACHN renal, with UACC-257 melanoma and with SNB-19 CNS was above 100 µM throughout. For the same compound, the TGI in the assay on COLO 205 colon, in the assay on 786-0 renal and with EKVX NSCLC was above 100 µM throughout.

For `C=CC(=O)N1C/C(=C\c2ccc([N+](=O)[O-])cc2)C(=O)/C(=C/c2ccc([N+](=O)[O-])cc2)C1`, the TGI in the assay with A498 renal stood at 0.807 µM; with DU-145 prostate, 2.36 µM; with ACHN renal it was 0.33 µM; in the assay with HOP-92 NSCLC it was 2.98 µM; in the assay on UACC-257 melanoma it was 3.25 µM; in the assay on SNB-19 CNS, 3.08 µM. Moreover, the TGI with COLO 205 colon stood at 0.273 µM; in the assay on 786-0 renal, 0.249 µM; with EKVX NSCLC, 0.829 µM.

As for `Nc1ccc2ccc(N3CCNCC3)nc2n1`, the TGI with CCRF-CEM leukemia, with DU-145 prostate, in the assay with ACHN renal, in the assay on HOP-92 NSCLC, in the assay with UACC-257 melanoma and in the assay on SNB-19 CNS was above 100 µM throughout. The TGI in the assay on COLO 205 colon, in the assay with 786-0 renal and with EKVX NSCLC was above 100 µM throughout.

As to `CCCOP(=O)(OCCC)OC(C(F)(F)F)C(F)(F)F`, the TGI with A498 renal, in the assay with CCRF-CEM leukemia, with DU-145 prostate, in the assay with ACHN renal, with UACC-257 melanoma and in the assay with SNB-19 CNS was above 100 µM throughout. In the assay with EKVX NSCLC, this compound returned a TGI above 100 µM.

`COc1cc(C2C3=C(CCCC3=O)N(c3ccc(C)cc3)C3=C2C(=O)CCC3)c([N+](=O)[O-])cc1OC`: the TGI in the assay with A498 renal, with CCRF-CEM leukemia, in the assay on ACHN renal, with HOP-92 NSCLC, in the assay on SNB-19 CNS and in the assay with 786-0 renal was above 100 µM throughout. In addition, the TGI with EKVX NSCLC is above 100 µM.

As for `O=P(Nc1ccccc1)(Oc1ccccc1)N(CCCl)CCCl` (stereo unspecified), the TGI with A498 renal, with CCRF-CEM leukemia, in the assay with ACHN renal, in the assay with HOP-92 NSCLC, with UACC-257 melanoma and in the assay with COLO 205 colon was above 100 µM in each case. This compound came in with a TGI in the assay on EKVX NSCLC above 100 µM.

Take `CC(=O)C(C(C)=O)[C@@H]1OC(C)(C)O[C@@H]1[C@H]1COC(C)(C)O1`: the TGI with A498 renal, in the assay on DU-145 prostate, in the assay with ACHN renal, with HOP-92 NSCLC, in the assay with UACC-257 melanoma and in the assay with SNB-19 CNS was above 100 µM each time. Further, the TGI was above 100 µM in the assay on COLO 205 colon, above 100 µM in the assay with 786-0 renal and 79.1 µM in the assay on EKVX NSCLC.
